In ChEMBL document CHEMBL1201862, “PubChem BioAssay data set” (2004):
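Compound exposure: 48 hours, 5 concentrations, 96-well plates. GI50: concentration for 50% inhibition of growth.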 Activity calls are given as the source filed them. Cut-off read from the data, not from the text of the source: active = GI50 up to about 1.1 µM and inactive = higher.

Key:
Experiment in all cases: growth of human tumour cells (NCI), 48 h
[1] = tested on: BT-549
[2] = tested on: SK-OV-3
[3] = tested on: OVCAR-4
[4] = tested on: ACHN
[5] = tested on: HT-29
[6] = tested on: EKVX
[7] = tested on: SNB-75
[8] = tested on: MDA-MB-231
[9] = tested on: IGROV-1
[10] = tested on: MDA-MB-435
[11] = tested on: SR
[12] = tested on: RXF 393
[13] = tested on: A549
[14] = tested on: OVCAR-5
[15] = tested on: DU-145
[16] = tested on: M14
[17] = tested on: HL-60
[18] = tested on: Malme-3M
[19] = tested on: HOP-92

Row | Structure (SMILES) | GI50 [1] | GI50 [2] | GI50 [3] | GI50 [4] | GI50 [5] | GI50 [6] | GI50 [7] | GI50 [8] | GI50 [9] | GI50 [10] | GI50 [11] | GI50 [12] | GI50 [13] | GI50 [14] | GI50 [15] | GI50 [16] | GI50 [17] | GI50 [18] | GI50 [19]
1 | O=[N+]([O-])c1cc(Cc2cc([N+](=O)[O-])c3cccnc3c2O)c(O)c2ncccc12 | 21.7 µM (inactive) | 15.7 µM (inactive) | 4.05 µM (inactive) | 5.6 µM (inactive) | 10.2 µM (inactive) | 6.37 µM (inactive) | 7.18 µM (inactive) | 3.4 µM (inactive) | 3.31 µM (inactive) | 10.5 µM (inactive) | 0.845 µM (active) | 5.32 µM (inactive) | 6.56 µM (inactive) | 24.8 µM (inactive) | 9.89 µM (inactive) | 6.07 µM (inactive) | 1.61 µM (inactive) | 6.68 µM (inactive) | 5.96 µM (inactive)
2 | CCOC(=O)c1cc([N+](=O)[O-])cc([N+](=O)[O-])c1Sc1[nH]cnc2ncnc1-2 | 2.24 µM (inactive) | 11 µM (inactive) | 1.03 µM (active) | 1.96 µM (inactive) | 2.37 µM (inactive) | 5.08 µM (inactive) | 10.3 µM (inactive) | 7.01 µM (inactive) | 2.31 µM (inactive) | 1.6 µM (inactive) | 2.38 µM (inactive) | 1.82 µM (inactive) | 14.3 µM (inactive) | 9.71 µM (inactive) | 1.31 µM (inactive) | 0.869 µM (active) | 1.94 µM (inactive) |  | 0.771 µM (active)
3 | COC(=O)[C@@H]1C[C@@H]2c3ccccc3N(S(=O)(=O)c3ccccc3)[C@@H]2N1C(=O)OC | > 100 µM (inactive) | > 100 µM (inactive) | > 100 µM (inactive) | > 100 µM (inactive) | > 100 µM (inactive) | > 100 µM (inactive) | > 100 µM (inactive) | > 100 µM (inactive) | > 100 µM (inactive) | > 100 µM (inactive) | > 100 µM (inactive) | > 100 µM (inactive) | > 100 µM (inactive) | 44 µM (inactive) | 35.2 µM (inactive) |  | > 100 µM (inactive) | > 100 µM (inactive) | > 100 µM (inactive)
4 | CSc1nc(NC2CCCC2)c2cc[nH]c2n1 | 74.6 µM (inactive) | > 100 µM (inactive) | 48.5 µM (inactive) | 64.7 µM (inactive) | 37.1 µM (inactive) | 31.2 µM (inactive) |  | 36.1 µM (inactive) | 98.2 µM (inactive) | 59.2 µM (inactive) | 22.3 µM (inactive) | > 100 µM (inactive) | 50.6 µM (inactive) |  | > 100 µM (inactive) | 65 µM (inactive) | 20 µM (inactive) | > 100 µM (inactive) | 30.1 µM (inactive)
5 | O=C(NNC(=S)Nc1cccc(Cl)c1)c1cc(-c2ccccc2)nc2ccccc12 | 19.4 µM (inactive) | 19.9 µM (inactive) | 14.3 µM (inactive) | 16.3 µM (inactive) | 20.4 µM (inactive) |  | 23.8 µM (inactive) | 13.1 µM (inactive) | 18.7 µM (inactive) | 16 µM (inactive) | 23.9 µM (inactive) | 16.1 µM (inactive) | 16.3 µM (inactive) | 15.4 µM (inactive) | 15.6 µM (inactive) | 17.5 µM (inactive) |  | 15.4 µM (inactive) | 12.5 µM (inactive)
6 | COc1ccc(CCCCNCc2cccc(CNCCCCc3ccc(OC)cc3)c2)cc1 | 1.81 µM (inactive) | 2.08 µM (inactive) | 2.03 µM (inactive) | 1.83 µM (inactive) | 1.82 µM (inactive) | 1.81 µM (inactive) | 1.76 µM (inactive) | 1.87 µM (inactive) | 1.74 µM (inactive) | 1.79 µM (inactive) | 1.79 µM (inactive) | 1.64 µM (inactive) | 2.15 µM (inactive) | 2.09 µM (inactive) | 1.88 µM (inactive) | 1.69 µM (inactive) | 1.77 µM (inactive) | 2 µM (inactive) | 1.44 µM (inactive)
7 | CC1OC(OC2C(OC(=O)[C@]34CCC(C)(C)C[C@H]3C3=CC[C@@H]5[C@@]6(C)CC[C@H](OC7OC(C(=O)O)C(O)C(O)C7O)C(C)(C)[C@@H]6CC[C@@]5(C)[C@]3(C)C[C@H]4O)OCC(O)C2O)C(O)C(O)C1OC1OCC(OC2OCC(O)C(O)C2O)C(O)C1O (some centres undefined) | 3.28 µM (inactive) | 13.8 µM (inactive) | 5.32 µM (inactive) | 4.72 µM (inactive) | 3.4 µM (inactive) | 4.16 µM (inactive) | 13.2 µM (inactive) | 3.45 µM (inactive) | 12.8 µM (inactive) | 4.59 µM (inactive) | 7.23 µM (inactive) | 14.3 µM (inactive) | 3.9 µM (inactive) | 6.75 µM (inactive) | 11.3 µM (inactive) | 3.52 µM (inactive) | 3.96 µM (inactive) | 11.4 µM (inactive) | 6.01 µM (inactive)
8 | CC(=O)N1C(Nc2ccccc2)CCN1c1ccccc1 (centres undefined) | > 10 µM (inactive) | > 10 µM (inactive) | > 10 µM (inactive) | 4.22 µM (inactive) | 5.77 µM (inactive) | > 10 µM (inactive) | > 10 µM (inactive) | > 10 µM (inactive) | > 10 µM (inactive) | 3.68 µM (inactive) | > 10 µM (inactive) | > 10 µM (inactive) | > 10 µM (inactive) | > 10 µM (inactive) | > 10 µM (inactive) | > 10 µM (inactive) | 5.08 µM (inactive) | 5.38 µM (inactive) | > 10 µM (inactive)
9 | O=c1oc2ccccc2cc1-c1nnc(-c2ccccc2)s1 | > 68.7 µM (inactive) | 48.6 µM (inactive) | > 68.2 µM (inactive) | 32 µM (inactive) | 10.1 µM (inactive) | > 58.9 µM (inactive) | 15.5 µM (inactive) | 19.1 µM (inactive) | 22.4 µM (inactive) | 1.65 µM (inactive) | 0.971 µM (active) | 17.1 µM (inactive) | 38.5 µM (inactive) | > 100 µM (inactive) | > 100 µM (inactive) | > 56.1 µM (inactive) | 0.0279 µM (active) | > 100 µM (inactive) | > 100 µM (inactive)
10 | Nc1c(/C=C/c2cc3cc(C4=NCCN4)ccc3o2)[nH]c2cc(C3=NCCN3)ccc12 | 43.6 µM (inactive) | > 100 µM (inactive) | 47.1 µM (inactive) | 47.1 µM (inactive) | 34.3 µM (inactive) | 40.1 µM (inactive) | 63.5 µM (inactive) | 34.1 µM (inactive) | 39.1 µM (inactive) | 33.1 µM (inactive) | 43.7 µM (inactive) | 43 µM (inactive) | 41.5 µM (inactive) | > 100 µM (inactive) | 36.1 µM (inactive) | 38.5 µM (inactive) | 29.6 µM (inactive) |  | 99.8 µM (inactive)
11 | COc1c2c(cc3c1C1(O)Cc4ccc5c(c4C[N+]1(C)CC3)OCO5)OCO2 (centres undefined) | > 100 µM (inactive) | > 100 µM (inactive) | > 100 µM (inactive) | > 100 µM (inactive) | 33.9 µM (inactive) | 87.3 µM (inactive) | > 100 µM (inactive) | > 100 µM (inactive) | > 100 µM (inactive) | > 100 µM (inactive) | 77.8 µM (inactive) | 43.9 µM (inactive) | > 100 µM (inactive) | > 100 µM (inactive) | > 100 µM (inactive) | > 100 µM (inactive) | 42.7 µM (inactive) | > 100 µM (inactive) | > 100 µM (inactive)
12 | CCOC(=O)C(C(N)=O)C1=Nc2cc([N+](=O)[O-])ccc2N/C1=C\C(=O)c1ccc(C)cc1 (centres undefined) | 22.6 µM (inactive) | 18.3 µM (inactive) | 43.6 µM (inactive) | 21.3 µM (inactive) | 33.1 µM (inactive) | 26.7 µM (inactive) | 16.1 µM (inactive) | 18.4 µM (inactive) | 17.4 µM (inactive) | 39.4 µM (inactive) | 7.55 µM (inactive) | 17.6 µM (inactive) | 26.9 µM (inactive) | 70.8 µM (inactive) | 32.6 µM (inactive) | 38.3 µM (inactive) |  | 35.3 µM (inactive) | 18.1 µM (inactive)
13 | CC(C)(Cl)C(Br)CCC(C)(Cl)C(Br)CBr (centres undefined) | 13.3 µM (inactive) | 39.2 µM (inactive) | 28.3 µM (inactive) | 21.2 µM (inactive) | 19.5 µM (inactive) | 32.1 µM (inactive) | 25.1 µM (inactive) | 23.3 µM (inactive) | 23.3 µM (inactive) | 26.7 µM (inactive) | 2.58 µM (inactive) | 32.7 µM (inactive) | 29.8 µM (inactive) | 18.7 µM (inactive) | 29 µM (inactive) | 34.5 µM (inactive) | 19.4 µM (inactive) | 22.4 µM (inactive) | 15.8 µM (inactive)
14 | NC(=O)c1cn(C2OC(CO)C(O)C2O)c2nc[n+]([O-])c(N)c12 (centres undefined) | 0.592 µM (active) | 0.0906 µM (active) | 0.201 µM (active) | 0.0351 µM (active) | 0.143 µM (active) | 1.21 µM (inactive) | 0.13 µM (active) | 0.342 µM (active) | 1.05 µM (active) | 0.167 µM (active) | 0.0509 µM (active) | 0.564 µM (active) | 0.285 µM (active) | 0.161 µM (active) | 0.104 µM (active) | 0.111 µM (active) |  | 0.0398 µM (active) | 0.67 µM (active)
15 | N#Cc1cc2c(n(C3OC(CO)C(O)C(O)C3O)c1=S)CCC2 (centres undefined) | > 100 µM (inactive) |  | > 100 µM (inactive) | > 100 µM (inactive) | > 100 µM (inactive) |  | 97.3 µM (inactive) | > 100 µM (inactive) | > 100 µM (inactive) | > 100 µM (inactive) | > 100 µM (inactive) | > 100 µM (inactive) | > 100 µM (inactive) | > 100 µM (inactive) | > 100 µM (inactive) | > 100 µM (inactive) | > 100 µM (inactive) | > 100 µM (inactive) | > 100 µM (inactive)
